Experimental data as given in US9732093B2, “FLAP modulators” (JANSSEN PHARMACEUTICA NV, priority 2013, dated 2017).
pIC50: −log10 of the molar value. Structures can show the parent of a compound that is named as a salt.

Tested on: leukotriene pathway in human whole blood
Assay: Human whole blood assay (LTB4 levels after A23187 stimulation)
Format: cell-based
Experimental: The ability of the compounds of the present invention to treat a FLAP-mediated disease and/or disorder, or associated symptoms or complications thereof, was determined using the following procedures. Binding assay data represent the average value obtained from two different assay plates, with samples run in duplicate on each plate. Human whole blood assay data represent a single replicate on an assay plate using whole blood from at least one healthy donor.
An in vitro cellular assay was performed using human whole blood collected in heparin-containing tubes, which was used to test the ability of compounds to modulate the leukotriene pathway in human whole blood. The blood was diluted 1:1 in RPMI medium, pre-incubated for 15 min at 37° Celsius with test compounds at various concentrations, and then stimulated with calcium ionophore, A23187 (7 μg/mL), for 30 min at 37° Celsius. The samples were then centrifuged and plasma was removed. The plasma was diluted in assay buffer and LTB4 levels were measured using a commercial kit (Enzo Life Sciences). The concentration of each compound that was required for half-maximal inhibition (modulation) of recombinant enzyme activity (IC50) was calculated by a 4-parameter equation using the program GraphPad Prism (GraphPad software).

[1] = blood diluted 1:1 in RPMI, 15 min pre-incubation, A23187 7 μg/mL for 30 min at 37° Celsius, plasma LTB4
[2] = human whole blood diluted 1:1 in RPMI, A23187 stimulation, Table 6 (additional runs)

Molecule | pIC50 [2] | pIC50 [1]
2-(4-Cyclobutyl-2-fluoro-3-{[4-(trifluoromethyl)benzyl]oxy}phenyl)-5H-pyrrolo[2,3-b]pyrazine trifluoroacetate salt [Example 177] | 6.05 | 6.11
5-(4-Cyclobutyl-2-fluoro-3-hydroxyphenyl)pyridin-2-amine [Intermediate F] | – | 5.89
5-(4-Cyclobutyl-2-fluoro-3-methoxyphenyl)-1H-pyrrolo[2,3-b]pyridine [Intermediate I] | 5.78 | 5.78
Nc1cnc(-c2ccc(C3CCC3)c(OCC(O)Cn3c(=O)[nH]c4ccccc43)c2F)cn1 (racemic) [Example 311, racemic 1-{3-[3-(5-Aminopyrazin-2-yl)-6-cyclobutyl-2-fluorophenoxy]-2-hydroxypropyl}-1,3-dihydro-2H-benzimidazol-2-one] | 6.58 | –
CC(C)(C)c1ccc(-c2cnc(N)nc2)c(F)c1Oc1cc(N)ncn1 [Example 208, 5-{3-[(6-Aminopyrimidin-4-yl)oxy]-4-tert-butyl-2-fluorophenyl}pyrimidin-2-amine] | 6.79 | –
N#CCOc1c(C2CCC2)ccc(-c2cnc(N)cn2)c1F [Example 276, [3-(5-Aminopyrazin-2-yl)-6-cyclobutyl-2-fluorophenoxy]acetonitrile] | 5.73 | –
Nc1cnc(-c2ccc(C3CCC3)c(Oc3cccnn3)c2F)cn1 [Example 277, 5-[4-Cyclobutyl-2-fluoro-3-(pyridazin-3-yloxy)phenyl]pyrazin-2-amine] | 6.72 | –
Nc1cnc(-c2ccc(C3CC3)c(Oc3nccc(N)n3)c2F)cn1 [Example 279, 2-[3-(5-Aminopyrazin-2-yl)-6-cyclopropyl-2-fluorophenoxy]pyrimidin-4-amine] | 6.94 | –
COC(=O)c1coc(COc2c(C3CCC3)ccc(-c3cnc(N)cn3)c2F)n1 [Example 281, Methyl 2-{[3-(5-aminopyrazin-2-yl)-6-cyclobutyl-2-fluorophenoxy]methyl}-1,3-oxazole-4-carboxylate trifluoroacetic acid salt] | 6.34 | –
Nc1cnc(-c2ccc(C3CCC3)c(OCCN3C(=O)c4ccccc4C3=O)c2F)cn1 [Example 293, 2-{2-[3-(5-Aminopyrazin-2-yl)-6-cyclobutyl-2-fluorophenoxy]ethyl}-1H-isoindole-1,3(2H)-dione] | 7.00 | –
Nc1cnc(-c2ccc(C3CCC3)c(OCCNc3ncccn3)c2F)cn1 [Example 296, N-{2-[3-(5-Aminopyrazin-2-yl)-6-cyclobutyl-2-fluorophenoxy]ethyl}pyrimidin-2-amine trifluoroacetic acid salt] | 6.55 | –

Further lines, with some results ahead:

pIC50 [2] | Molecule | pIC50 [1]
6.90 | COc1cc(Oc2c(C3CCC3)ccc(-c3cnc(N)cn3)c2F)ncn1 [Example 97, 5-{4-Cyclobutyl-2-fluoro-3-[(6-methoxypyrimidin-4-yl)oxy]phenyl}pyrazin-2-amine] | –
6.91 | Nc1cnc(-c2ccc(C3CCC3)c(Oc3cc(O)ncn3)c2F)cn1 [Example 98] | –
7.67 | Nc1cnc(-c2ccc(C3CCC3)c(Oc3ccnc(N)n3)c2F)cn1 [Example 130, 4-[3-(5-Aminopyrazin-2-yl)-6-cyclobutyl-2-fluorophenoxy]pyrimidin-2-amine] | –
6.89 | NC(=O)c1ccc(Oc2c(C3CCC3)ccc(-c3cnc(N)cn3)c2F)cc1 [Example 155, 4-[3-(5-Aminopyrazin-2-yl)-6-cyclobutyl-2-fluorophenoxy]benzamide] | –
6.27 | Nc1cnc(-c2ccc(C3CCC3)c(OCc3nc4ccccc4s3)c2F)cn1 [Example 283, 5-[3-(1,3-Benzothiazol-2-ylmethoxy)-4-cyclobutyl-2-fluorophenyl]pyrazin-2-amine trifluoroacetic acid salt] | –
6.73 | Nc1cnc(-c2ccc(C3CCC3)c(OCCNc3cnccn3)c2F)cn1 [Example 295, 5-{4-Cyclobutyl-2-fluoro-3-[2-(pyrazin-2-ylamino)ethoxy]phenyl}pyrazin-2-amine trifluoroacetic acid salt] | –
